Experimental findings from publication PMC11358882, “Neuroprotective Effects of Phenolic Constituents from Drynariae Rhizoma” (Pharmaceuticals, 2024) are described below.

Experiment [1] deals with T1, Aβ1-42 (Homo sapiens, UniProt P05067).
T1 construct: Aβ1-42 used for the Th T assay was purchased from GL Biochem, Shanghai, China; purchased GL Biochem, Shanghai, China
The experiment is described as follows: Thioflavin T assay, disaggregation of preformed Aβ aggregates. Particulars: 24 h with Aβ pre-aggregated for 24 h. Type of experiment: biochemical. On the procedure: (§1) The Th T assay was conducted to assess the aggregation of Aβ into oligomers and fibrils. Aβ1-42 was dissolved in DMSO at a concentration of 1 mg/mL, and test samples were also dissolved in DMSO. Aβ1-42 (20 μM) was incubated with various concentrations of test samples at 37 °C for 24 h to evaluate the effects of test samples on Aβ aggregation. Subsequently, 3 μM of Th T was added, and fluorescence was measured after 30 min using an E-max precision microplate reader with excitation at 442 nm and emission at 485 nm (Epoch, BioTek, Winooski, VT, USA). Aβ treated with DMSO only served as a control, and each assay was performed in triplicate. Then, the Th T assay was performed to assess the effects of test samples on the disaggregation of preformed Aβ aggregates. Briefly, 20 μM of Aβ1-42 was incubated at 37 °C for 24 h. Various concentrations of test samples were then added and incubated at 37 °C for an additional 24 h. Subsequently, 3 μM of Th T was added, and fluorescence was measured after 30 min using an E-max precision microplate reader with excitation at 442 nm and emission at 485 nm (Epoch, BioTek, Winooski, VT, USA). Aβ treated with DMSO only served as a control, and each assay was performed in triplicate.

The target in experiment [2] is T1, Aβ1-42. The experiment is described as follows: Thioflavin T assay, Aβ aggregation. It counts as biochemical. As to conditions: 24 h, Aβ1-42 20 μM. The protocol:
as §1

Experiment [3] concerns β-secretase. Kind of experiment: Western blot of β-secretase levels in APP-CHO cells. Type of experiment: cell-based, Chinese hamster. Particulars: 1.0 μM, 24 h. The protocol:
(§2) APP-CHO cells were seeded in six-well plates at a density of 6 × 10^5 cells/1000 μL of medium per well and incubated at 37 °C overnight for cell attachment. Then, the medium was replaced with FBS-free RPMI 1640 for 1 h, followed by treatment with test samples at 37 °C. After 24 h, the cells were washed with PBS and lysed in Laemmli sample buffer. The collected cell lysates were boiled at 100 °C for 10 min. For Western blot analysis, 20 μg of proteins were separated by 7.5% SDS-PAGE and transferred to a PVDF membrane using Trans-Blot® Turbo TM (Bio-Rad, Hercules, CA, USA). The membrane was blocked with 5% skim milk in PBS for 1 h and incubated with primary antibodies overnight at 4 °C. The primary antibodies used were sAPPβ antibody, BACE1 antibody, and α-tubulin antibody diluted at 1:1000, 1:1000, and 1:25,000, respectively. After washing with PBS-T (0.1% Tween 20 in PBS) three times for 10 min each, secondary antibodies, diluted to 1:2500, were incubated for 1 h. Protein detection was performed using ECL solution reagent and protein visualization (ChemiDoc^TM XRS+., Bio-Rad, Hercules, CA, USA). The signal intensity of the bands was quantified and normalized to the signal intensity of the α-tubulin band. Results were expressed as a percentage of DMSO-treated control.
For orientation: In western blotting, separated proteins are transferred to a membrane and probed.

Experiment [4] has as its system sAPPβ. The experiment is described as follows: Western blot of sAPPβ levels in APP-CHO cells. As to conditions: 1.0 μM, 24 h. It counts as cell-based, Chinese hamster. The protocol:
as §2

Where “and” joins values, the source holds several entries; their conditions need not be identical. Identical values can stand only once.

T1 sequence (P05067 672-713 limits assumed): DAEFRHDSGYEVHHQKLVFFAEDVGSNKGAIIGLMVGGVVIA

Take `C[C@@H]1O[C@@H](Oc2c(-c3ccc(O)cc3)oc3cc(O[C@@H]4O[C@H](CO)[C@@H](O)[C@H](O)[C@H]4O)cc(O)c3c2=O)[C@H](O)[C@H](O)[C@H]1O` [Compound 6, kaempferol 3-O-rhamnoside 7-O-glucoside]: in experiment [1] (1.0 μM), the “degradation of preformed Aβ aggregates” value is “approximately 45%”. In experiment [2] (1.0 μM), the “decrease of Aβ aggregation relative to DMSO-treated control” value was “approximately 40%”. Further, the “reduction of β-secretase levels compared to DMSO-treated controls” value in experiment [3] is 30%. For the same compound, the “reduction of sAPPβ levels compared to DMSO-treated controls” value in experiment [4] is listed as 30%.
Turning to `O=c1c(O[C@@H]2O[C@H](CO)[C@@H](O)[C@H](O)[C@H]2O)c(-c2ccc(O)cc2)oc2cc(O[C@@H]3O[C@@H](CO)[C@H](O)[C@H]3O)cc(O)c12` [Compound 7, kaempferol 3-o-b-d-glucopyranoside-7-o-a-L-arabinofuranoside], the “degradation of preformed Aβ aggregates” value in experiment [1] (0.5 μM) is approximately 60%. Moreover, in experiment [2] (0.5 μM), the “Aβ aggregation reduced to % of the levels in the DMSO-treated control” value is given as approximately 55% and the “decrease of Aβ aggregation relative to DMSO-treated control” value is listed as 55%. Moreover, in experiment [2] (1.0 μM), the “Aβ aggregation reduced to % of the levels in the DMSO-treated control” value is reported as “approximately 80%” and the “decrease of Aβ aggregation relative to DMSO-treated control” value is approximately 80%. The “reduction of β-secretase levels compared to DMSO-treated controls” value in experiment [3] is 40% and 30%. Further, in experiment [4], the “reduction of sAPPβ levels compared to DMSO-treated controls” value stood at 30%.
